# Experimental data: patent US10981926B2 (Janssen Pharmaceutica NV, priority 2016, dated 2021)
# How the values were obtained:
# [1] = target: T1, wild-type Androgen Receptor (AR-wt) (Homo sapiens (Human), UniProt P10275); assay: LNCaP-AR-wt ANT reporter assay (antagonist mode); assay type: cell-based; details: for IC50 / LNCaP-AR-wt ANT pIC50: antagonist mode, pIC50 = −Log10(IC50 in Molar); for IC50: read-out: LNCaP-AR-wt ANT pIC50 (converted); for Emax: maximum % inhibition of R1881 control response over the tested concentration range, read-out: LNCaP-AR-wt ANT MAX % Inh
# T1 sequence (P10275 whole entry): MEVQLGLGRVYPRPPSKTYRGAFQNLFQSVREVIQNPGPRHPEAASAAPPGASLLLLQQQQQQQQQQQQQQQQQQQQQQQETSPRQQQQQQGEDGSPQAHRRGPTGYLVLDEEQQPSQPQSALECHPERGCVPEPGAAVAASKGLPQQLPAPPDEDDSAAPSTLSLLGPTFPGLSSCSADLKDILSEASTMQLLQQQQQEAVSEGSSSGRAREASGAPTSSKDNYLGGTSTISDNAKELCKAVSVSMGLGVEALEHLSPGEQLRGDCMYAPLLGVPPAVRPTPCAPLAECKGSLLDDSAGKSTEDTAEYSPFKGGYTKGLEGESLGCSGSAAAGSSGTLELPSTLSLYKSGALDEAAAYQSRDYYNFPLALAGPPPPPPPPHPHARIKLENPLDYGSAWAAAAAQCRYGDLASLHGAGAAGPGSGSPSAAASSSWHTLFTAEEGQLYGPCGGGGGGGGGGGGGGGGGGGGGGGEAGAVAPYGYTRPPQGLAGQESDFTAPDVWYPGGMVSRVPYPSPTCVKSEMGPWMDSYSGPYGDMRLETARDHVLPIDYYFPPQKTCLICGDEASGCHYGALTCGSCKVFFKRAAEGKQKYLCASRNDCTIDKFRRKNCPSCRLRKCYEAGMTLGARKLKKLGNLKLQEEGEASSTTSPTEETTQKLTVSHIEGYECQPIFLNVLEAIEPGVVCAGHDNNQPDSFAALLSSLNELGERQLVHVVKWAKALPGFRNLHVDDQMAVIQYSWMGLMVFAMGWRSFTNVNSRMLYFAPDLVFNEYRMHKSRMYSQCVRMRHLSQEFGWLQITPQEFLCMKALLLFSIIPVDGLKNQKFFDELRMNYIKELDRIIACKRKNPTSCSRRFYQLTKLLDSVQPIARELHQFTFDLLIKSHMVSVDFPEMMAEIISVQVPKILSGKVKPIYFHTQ
# [2] = target: T1, wild-type Androgen Receptor (AR-wt); assay: LNCaP-AR-wt AG reporter assay (agonist mode); assay type: cell-based; details: for EC50: read-out: LNCaP-AR-wt AG pEC50 (converted); for Emax: maximum % stimulation (agonist response) over the tested concentration range, read-out: LNCaP-AR-wt AG MAX % Stim
# [3] = target: T2, F876L mutant Androgen Receptor (AR-F876L) (Homo sapiens (Human), UniProt P10275, F877L); assay: LNCaP-AR-F876L ANT reporter assay (antagonist mode); assay type: cell-based; details: for IC50: read-out: LNCaP-AR-F876L ANT pIC50 (converted); for Emax: maximum % inhibition of R1881 control response over the tested concentration range, read-out: LNCaP-AR-F876L ANT MAX % Inh
# T2 sequence (P10275 whole entry F877L): as the sequence (P10275 whole entry) above, with F877L counted along it
# [4] = target: T2, F876L mutant Androgen Receptor (AR-F876L); assay: LNCaP-AR-F876L AG reporter assay (agonist mode); assay type: cell-based; details: for EC50: read-out: LNCaP-AR-F876L AG pEC50 (converted); for Emax: maximum % stimulation (agonist response) over the tested concentration range, read-out: LNCaP-AR-F876L AG MAX % Stim
# rGABA-gated Cl− channel = assay: GABA-Gated Cl Channel Antagonist Radioligand Binding Assay; set-up: species or system rat; details: 10 μM single point, [35S]-TBPS, cerebral cortex membrane homogenates
# Procedure, shortened: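 Values give percent inhibition of control specific […] (3 nM) binding at a single 10 μM compound concentration. Cerebral cortex membranes, 120 min, 22° C, phosphate buffer pH 7.4 with 500 mM NaCl; 20 μM picrotoxinin sets nonspecific binding; filtration and scintillation read-out.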
# [5] = agonist mode, pEC50 = −Log10(EC50 in Molar)
# [6] = antagonist mode, pIC50 = −Log10(IC50 in Molar)
SMILES,IC50 [1] [nM],Emax [1] [%],"EC50 [2, 5] [nM]",Emax [2] [%],"IC50 [3, 6] [nM]",Emax [3] [%],"EC50 [4, 5] [nM]",Emax [4] [%],rGABA-gated Cl− channel % inh @10 μM (rGABA-gated Cl− channel) [%],LNCaP-AR-wt ANT pIC50 [1],"LNCaP-AR-wt AG pEC50 [2, 5]","LNCaP-AR-F876L AG pEC50 [4, 5]","LNCaP-AR-F876L ANT pIC50 [3, 6]"
"N#Cc1ncc(N2C(=O)C3(CCC3)N(c3ccc(OC4CCN(CCO)CC4)cc3)C2=S)cc1Cl [Cpd 50, 3-chloro-5-[8-[4-[[1-(2-hydroxyethyl)-4-piperidyl]oxy]phenyl]-5-oxo-7-thioxo-6,8-diazaspiro[3.4]octan-6-yl]pyridine-2-carbonitrile]",16.2,101,> 15100,0.1,8.71,98,> 15100,1.4,13.2,,,,
"CN1[C@@H]2CC[C@H]1C[C@H](Oc1ccc(N3C(=S)N(c4cnc(C#N)c(C(F)(F)F)c4)C(=O)C34CCC4)cc1)C2 [Cpd 52, 5-[8-[4-[[(1R,3s,5S)-8-methyl-8-azabicyclo[3.2.1]octan-3-yl]oxy]phenyl]-5-oxo-7-thioxo-6,8-diazaspiro[3.4]octan-6-yl]-3-(trifluoromethyl)pyridine-2-carbonitrile]",,98.3,,2.8,43.7,98.9,,0.8,13.1,6.76,<4.82,<4.82,
"CNC(=O)N1CCN(Cc2ccc(N3C(=S)N(c4cnc(C#N)c(C(F)(F)F)c4)C(=O)C34CCC4)cc2)CC1 [Cpd 53, 4-[[4-[6-[6-cyano-5-(trifluoromethyl)-3-pyridyl]-5-oxo-7-thioxo-6,8-diazaspiro[3.4]octan-8-yl]phenyl]methyl]-N-methyl-piperazine-1-carboxamide]",123,102,> 15100,0.4,45.7,100,> 15100,0.1,52.4,,,,
"N#Cc1ncc(N2C(=O)C3(CCC3)N(c3ccc(OCC4CC(F)(F)CN4)cc3)C2=S)cc1C(F)(F)F (stereo not drawn) [Cpd 54, 5-[8-[4-[(4,4-difluoropyrrolidin-2-yl)methoxy]phenyl]-5-oxo-7-thioxo-6,8-diazaspiro[3.4]octan-6-yl]-3-(trifluoromethyl)pyridine-2-carbonitrile]",81.3,101,> 15100,1.3,93.3,97.1,> 15100,0.7,93.0,,,,
"CCOC(=O)N1CCN(Cc2ccc(N3C(=S)N(c4cnc(C#N)c(C(F)(F)F)c4)C(=O)C34CCC4)cc2)CC1 [Cpd 55, Ethyl 4-[[4-[6-[6-cyano-5-(trifluoromethyl)-3-pyridyl]-5-oxo-7-thioxo-6,8-diazaspiro[3.4]octan-8-yl]phenyl]methyl]piperazine-1-carboxylate]",72.4,104,> 15100,0.6,40.7,101,> 15100,0.5,100.0,,,,
"CCOC(=O)N1CCN(c2ccc(N3C(=S)N(c4cnc(C#N)c(C(F)(F)F)c4)C(=O)C34CCC4)cc2)CC1 [Cpd 58, Ethyl 4-[4-[6-[6-cyano-5-(trifluoromethyl)-3-pyridyl]-5-oxo-7-thioxo-6,8-diazaspiro[3.4]octan-8-yl]phenyl]piperazine-1-carboxylate]",87.1,101,> 15100,0,93.3,98.1,> 15100,1,88.1,,,,
"CN1CC(COc2ccc(N3C(=S)N(c4cnc(C#N)c(C(F)(F)F)c4)C(=O)C34CCC4)cc2)C1 [Cpd 59, 5-[8-[4-[(1-methylazetidin-3-yl)methoxy]phenyl]-5-oxo-7-thioxo-6,8-diazaspiro[3.4]octan-6-yl]-3-(trifluoromethyl)pyridine-2-carbonitrile]",135,102,> 15100,0,56.2,100,> 15100,0.1,16.0,,,,
"N#CCN1CCC(Oc2ccc(N3C(=S)N(c4cnc(C#N)c(C(F)(F)F)c4)C(=O)C34CCC4)cn2)CC1 [Cpd 60, 5-[8-[6-[[1-(cyanomethyl)-4-piperidyl]oxy]-3-pyridyl]-5-oxo-7-thioxo-6,8-diazaspiro[3.4]octan-6-yl]-3-(trifluoromethyl)pyridine-2-carbonitrile]",22.9,99.2,> 15100,0.8,9.55,98.1,> 15100,0.6,91.5,,,,
"COCCN1CCC(Oc2ccc(N3C(=S)N(c4cnc(C#N)c(C(F)(F)F)c4)C(=O)C34CCC4)cn2)CC1 [Cpd 61, 5-[8-[6-[[1-(2-methoxyethyl)-4-piperidyl]oxy]-3-pyridyl]-5-oxo-7-thioxo-6,8-diazaspiro[3.4]octan-6-yl]-3-(trifluoromethyl)pyridine-2-carbonitrile]",29.5,99.2,> 15100,0.4,36.3,98.8,> 15100,0.3,26.1,,,,
"Cc1cc(N2C(=O)C3(CCC3)N(c3ccc(OC4CCN(CC(F)(F)F)CC4)nc3)C2=S)cnc1C#N [Cpd 62, 3-methyl-5-[5-oxo-7-thioxo-8-[6-[[1-(2,2,2-trifluoroethyl)-4-piperidyl]oxy]-3-pyridyl]-6,8-diazaspiro[3.4]octan-6-yl]pyridine-2-carbonitrile]",38,100,> 15100,0.5,26.9,98.4,> 15100,0.2,61.0,,,,
"N#Cc1ncc(N2C(=O)C3(CCC3)N(c3ccc(OC4CCN(CCO)CC4)nc3)C2=S)cc1C(F)(F)F [Cpd 63, 5-[8-[6-[[1-(2-hydroxyethyl)-4-piperidyl]oxy]-3-pyridyl]-5-oxo-7-thioxo-6,8-diazaspiro[3.4]octan-6-yl]-3-(trifluoromethyl)pyridine-2-carbonitrile]",81.3,102,> 15100,0,69.2,101,> 15100,0.1,13.0,,,,
"N#Cc1ncc(N2C(=O)C3(CCC3)N(c3ccc(OC4CCNCC4)nc3)C2=S)cc1Cl [Cpd 64, 3-chloro-5-[5-oxo-8-[6-(4-piperidyloxy)-3-pyridyl]-7-thioxo-6,8-diazaspiro[3.4]octan-6-yl]pyridine-2-carbonitrile]",,101,> 15100,-0.2,,100,> 15100,0.1,5.8,7.30,,,7.33
"N#CCN1CCC(Oc2ccc(N3C(=S)N(c4cnc(C#N)c(Cl)c4)C(=O)C34CCC4)cn2)CC1 [Cpd 65, 3-chloro-5-[8-[6-[[1-(cyanomethyl)-4-piperidyl]oxy]-3-pyridyl]-5-oxo-7-thioxo-6,8-diazaspiro[3.4]octan-6-yl]pyridine-2-carbonitrile]",7.24,101,> 15100,0.4,8.51,99.3,> 15100,0.4,67.2,,,,
"N#Cc1ncc(N2C(=O)C3(CCC3)N(c3ccc(OC4CCN(CC(F)(F)F)CC4)nc3)C2=S)cc1C(F)(F)F [Cpd 66, 5-[5-oxo-7-thioxo-8-[6-[[1-(2,2,2-trifluoroethyl)-4-piperidyl]oxy]-3-pyridyl]-6,8-diazaspiro[3.4]octan-6-yl]-3-(trifluoromethyl)pyridine-2-carbonitrile]",49,99,> 15100,0.5,45.7,95.5,> 15100,0.9,83.0,,,,
"N#Cc1ncc(N2C(=O)C3(CCC3)N(c3ccc(OC4CCN(CCF)CC4)nc3)C2=S)cc1C(F)(F)F [Cpd 67, 5-[8-[6-[[1-(2-fluoroethyl)-4-piperidyl]oxy]-3-pyridyl]-5-oxo-7-thioxo-6,8-diazaspiro[3.4]octan-6-yl]-3-(trifluoromethyl)pyridine-2-carbonitrile]",42.7,99.6,> 15100,0.4,46.8,97.4,> 15100,0.7,53.4,,,,
